Legend:
Zika virus [1] = assay: Percent infectivity of Zika-infected VERO cells (FIG. 5); assay type: cell-based; settings: FIGS. 4 and 5; 5 μM and 1 μM
Zika virus [2] = assay: Zika virus plaque assay on Vero cells; assay type: cell-based; settings: Vero cells infected with Zika virus

With “dextran 3-[(2-aminoethyl)thio]propyl 17-carboxy-10,13,16-tris(carboxymethyl)-8-oxo-4-thia-7,10,13,16-tetraazaheptadec-1-yl 3-[[2-[[1-imino-2-(D-mannopyranosylthio)ethyl]amino]ethyl]thio]propyl ether complexes [Tilmanocept]” the “Effect on Zika infection of VERO cells” value (Zika virus [1]) was “no effect” and the “Reduction of Zika virus in infected Vero cells” value (Zika virus [2]) was 99.9%.
